In publication PMC7916522, “In Vitro and In Vivo Anti-Candida Activity and Structural Analysis of Killer Peptide (KP)-Derivatives” (Journal of Fungi, 2021):
Peptide text beside a SMILES is read from it.

What was measured:
[1] = test system: Candida albicans SC5314; experiment: CFU assay, neutralization of candidacidal activity by laminarin; assay type: cell-based; conditions: peptide at its minimal candidacidal concentration
Description: The candidacidal activity of KP-derivatives, in comparison to KP, was evaluated by a previously described colony forming unit (CFU) assay against the reference C. albicans strain SC5314 [25]. Briefly, approximately 500 yeast cells were incubated at 37 °C for 6 h in 100 µL of distilled water in the presence or absence (control growth) of the synthetic peptides at serial dilutions. After spreading on Sabouraud Dextrose agar (SDA) plates and incubation for 48–72 h at 30 °C, CFUs were counted. Peptide fungicidal activity was determined as percentage of CFU inhibition, according to the formula 100-(CFUs peptide treated/CFUs control growth) × 100. Each assay was carried out in triplicate and at least two independent experiments were performed for each condition. Half maximal effective concentration (EC50) was calculated by nonlinear regression analysis using GraphPad Prism 5 software (San Diego, CA, USA). CFU assays were also performed in order to verify if laminarin (100 or 200 µg/mL), a soluble β-1,3-glucan, could neutralize the candidacidal activity of KP-derivatives at their minimum fungicidal concentration [25].

[2] = test system: LLC-MK2 cells; conditions: 24 h incubation, resazurin assay; for Cell viability (%) 10 µM: peptide 10 µM; for Cell viability (%) 25 µM: peptide 25 µM; for Cell viability (%) 50 µM: peptide 50 µM
Description: (§1) A stock solution of peptides (20 mg/mL) was prepared in dimethyl sulfoxide (DMSO), then proper dilutions were made for evaluation of biological activities. DMSO at proper concentration was present in controls (without peptides). All the peptides were evaluated for their hemolytic activity against freshly collected human red blood cells, while cytotoxicity against monkey kidney epithelial cells LLC-MK2 was determined by resazurin assay, as previously described.

[3] = test system: human red blood cells; conditions: peptide 25 µM
Description: as §1

| SMILES | C. albicans Growth Inhibition (%) in the Presence of Laminarin 100 µg/mL [1] [%] | C. albicans Growth Inhibition (%) in the Presence of Laminarin 200 µg/mL [1] [%] | Cell viability (%) 10 µM [2] [%] | Cell viability (%) 25 µM [2] [%] | Cell viability (%) 50 µM [2] [%] | hemolysis after 30 min ([3]; 30 min incubation) [%] | hemolysis after 120 min ([3]; 120 min incubation) [%] |
| --- | --- | --- | --- | --- | --- | --- | --- |
| CSCC[C@H](NC(=O)[C@@H](NC(=O)[C@@H](NC(=O)[C@H](CCCCN)NC(=O)[C@H](C)N)C(C)C)[C@@H](C)O)C(=O)N[C@H](C(=O)N[C@@H](CS)C(=O)N[C@@H](CO)C(=O)N[C@@H](C)C(=O)N[C@@H](CO)C(=O)O)[C@@H](C)O [A10S (KP)] (H-AKVTMTCSAS-OH) | 96.39 ± 1.68 | 1.80 ± 0.49 | 93.59 | 88.20 | 89.71 | 1.13 | – |
| CSCC[C@H](NC(=O)[C@@H](NC(=O)[C@@H](NC(=O)[C@H](CCCCN)NC(=O)[C@@H](N)Cc1c[nH]cn1)C(C)C)[C@@H](C)O)C(=O)N[C@H](C(=O)N[C@@H](CS)C(=O)N[C@@H](CO)C(=O)N[C@@H](C)C(=O)N[C@@H](CO)C(=O)O)[C@@H](C)O [Peptide H10S] (H-HKVTMTCSAS-OH) | 6.20 ± 3.71 | – | 96.77 | 94.90 | 90.99 | – | – |
| CSCC[C@H](NC(=O)[C@@H](NC(=O)[C@@H](NC(=O)[C@@H](N)CCCCN)C(C)C)[C@@H](C)O)C(=O)N[C@H](C(=O)N[C@@H](CS)C(=O)N[C@@H](CO)C(=O)N[C@@H](C)C(=O)N[C@@H](CO)C(=O)O)[C@@H](C)O [Peptide K9S] (H-KVTMTCSAS-OH) | 31.09 ± 1.71 | 0.68 ± 0.97 | 100 | 98.55 | 95.86 | – | – |
| CSCC[C@H](NC(=O)[C@@H](NC(=O)[C@@H](NC(=O)[C@H](CCCCN)NC(=O)[C@@H](N)CCCCN)C(C)C)[C@@H](C)O)C(=O)N[C@H](C(=O)N[C@@H](CS)C(=O)N[C@@H](CO)C(=O)N[C@@H](C)C(=O)N[C@@H](CO)C(=O)O)[C@@H](C)O [Peptide K10S] (H-KKVTMTCSAS-OH) | 1.07 ± 0.39 | – | 93.74 | 100 | 90.95 | – | 2.42 |
| CSCC[C@H](NC(=O)[C@@H](NC(=O)[C@@H](NC(=O)[C@H](CCCCN)NC(=O)[C@@H](N)CC(C)C)C(C)C)[C@@H](C)O)C(=O)N[C@H](C(=O)N[C@@H](CS)C(=O)N[C@@H](CO)C(=O)N[C@@H](C)C(=O)N[C@@H](CO)C(=O)O)[C@@H](C)O [Peptide L10S] (H-LKVTMTCSAS-OH) | 0 | – | 95.70 | 93.44 | 98.07 | – | – |
| CSCC[C@H](NC(=O)[C@@H](NC(=O)[C@@H](NC(=O)[C@H](CCCCN)NC(=O)[C@@H]1CCCN1)C(C)C)[C@@H](C)O)C(=O)N[C@H](C(=O)N[C@@H](CS)C(=O)N[C@@H](CO)C(=O)N[C@@H](C)C(=O)N[C@@H](CO)C(=O)O)[C@@H](C)O [Peptide P10S] (H-PKVTMTCSAS-OH) | 97.71 ± 0.46 | 3.10 ± 4.38 | 93.25 | 90.20 | 89.77 | – | – |
| CSCC[C@H](NC(=O)[C@@H](NC(=O)[C@@H](NC(=O)[C@H](CCCCN)NC(=O)[C@@H](N)CO)C(C)C)[C@@H](C)O)C(=O)N[C@H](C(=O)N[C@@H](CS)C(=O)N[C@@H](CO)C(=O)N[C@@H](C)C(=O)N[C@@H](CO)C(=O)O)[C@@H](C)O [Peptide S10S] (H-SKVTMTCSAS-OH) | 99.12 ± 0.50 | 60.73 ± 13.13 | 99.77 | 99.75 | 91.09 | – | – |
| CSCC[C@H](NC(=O)[C@@H](NC(=O)[C@@H](NC(=O)[C@H](CCCCN)NC(=O)[C@@H](N)Cc1ccc(O)cc1)C(C)C)[C@@H](C)O)C(=O)N[C@H](C(=O)N[C@@H](CS)C(=O)N[C@@H](CO)C(=O)N[C@@H](C)C(=O)N[C@@H](CO)C(=O)O)[C@@H](C)O [Peptide Y10S] (H-YKVTMTCSAS-OH) | 5.57 ± 4.84 | – | 96.89 | 95.35 | 97.18 | – | – |
